How the values were obtained:
[1] = pH of dissolution vessel with calcium carbonate antacid tablets in HCl; format: physicochemical; conditions: in 10 minutes (FIG. 1)
Procedure: Two dissolution vessels were prepared: one vessel contained 25 mEq of HCl and a single commercially available calcium carbonate antacid tablet (Tums®), and the other vessel contained 25 mEq of HCl and five calcium carbonate antacid tablets. […] Calcium carbonate has shown a capability as a pH modifier and pH dependent solubility.

[2] = earlier experimentation
Procedure: Thus, sodium bicarbonate was added to a prototype formulation primarily to control rapid pH elevation and calcium carbonate for a more sustained control of elevated pH.

## O=C([O-])[O-].[Ca+2] [calcium carbonate]
[1]
  pH change seen for calcium carbonate: 5

## O=C([O-])O.[Na+] [sodium bicarbonate]
[2]
  time to raise acid media from pH 1 to pH 6: less than 2 minutes

Source: patent US10441657B2, “Methods and compositions for self-regulated release of active pharmaceutical ingredient” (Acura Pharmaceuticals, Inc., priority 2012, dated 2019)
